Assay in all cases: MIC, serial dilution test in the microtiter system
Common to all, as to format: cell-based

The subject of assay [1] is escherichia coli ATCC 11775. The conditions noted are these: ATCC11775, 18 h, E. coli ATCC 11775, 37° C., 18-20 hours. As to the method: (§1) The tests were performed according to the method of the serial dilution test in the microtiter system. The effect of the substances on bacteriostasis was examined in a fluid medium. The activity on bacteriostatis was examined at the following concentrations:
(§2) 10 gm of peptone, 8 gm of meat extract-oxoid, 3 gm of sodium chloride, 2 gm of sec. sodium phosphate were diluted with distilled water to 1000 ml (pH 7.2-7.4). Only in the test against streptococci 1% of glucose was added. The age of the primary cultures was about 20 hours. The standardizations of the pathogen suspension was effected by using a photometer according to "Eppendorf" (test tube diameter 14 mm, filter 546 nm) with the aid of the turbidity of a comparison suspension consisting of barium sulfate, this suspension being prepared by addition of 3.0 ml of 1% barium chloride solution to 97 ml of 1% sulfuric acid. After the standardization, streptococcus aronson were further diluted to a concentration of 1:15 and the other germs to a concentration of 1:1500 by menas of a sodium chloride solution.
(§3) 16 mg of the test substance were put into a 10 ml measuring flask and filled up to the mark with the solvent. The further dilution series was standardized with distilled water or the respective solvent.
(§4) The cavities of the microtiter plates were filled with 0.2 ml of nutrient medium. Then, 0.01 ml of the corresponding test substance dilution was added and inoculated with 0.01 ml of the standardized suspension. The bacteria were incubated at 37° C. for 18-20 hours. Control tests merely using the solvent were carried out simultaneously.
(§5) The measurement was carried out macroscopically to determine the minimal inhibitory (threshold) concentration, i.e. the lowest still bacteriostatically effective concentration.
(§6) Staphylococcus aureus SG 511, streptococcus aronson, streptococcus faecalis ATCC 10541, escherichia coli ATCC 9637, 11 775 and escherichia coli 12593/74 (β-lactamase carrier), pseudomonas aeruginosa hamburgensis and ATCC 10145, serratia marcescens ATCC 13 880, klebsiella pneumoniae ATCC 10 031 and 272 and proteus mirabilis hamburgensis.

Assay [2] concerns proteus mirabilis hamburgensis. The conditions noted are these: 18 h, prot. mirabilis, 37° C., 18-20 hours. How it is done:
as §1, §2, §3, §4, §5, §6

Assay [3] relates to escherichia coli ATCC 9637. The conditions noted are these: ATCC9637, 18 h, E. coli ATCC 9637, 37° C., 18-20 hours. How it is done: as §1, §2, §3, §4, §5, §6
For assay [4], the system named is klebsiella pneumoniae ATCC 10 031. The conditions noted are these: 18 h, klebs pneum ATCC 10031, 37° C., 18-20 hours. How it is done:
as §1, §2, §3, §4, §5, §6

The test system of assay [5] is streptococcus aronson. The note with it: 18 h, strept. aronson, 1% glucose added, 37° C., 18-20 hours. As to the method: as §1, §2, §3, §4, §5, §6
For assay [6], the system named is escherichia coli 12593/74 (β-lactamase carrier). The note with it: 18 h, E. coli 12593/74 (β-lactamase carrier), 37° C., 18-20 hours. As to the method:
as §1, §2, §3, §4, §5, §6

For assay [7], the system named is streptococcus faecalis ATCC 10541. The note with it: Enterococcus faecalis, ATCC10541, 18 h; strept. faecal.; 37° C., 18-20 hours. As to the method: as §1, §2, §3, §4, §5, §6
Assay [8] has as its system klebsiella pneumoniae 272. The conditions noted are these: 18 h, klebs pneum. 272, 37° C., 18-20 hours. As to the method:
as §1, §2, §3, §4, §5, §6

The subject of assay [9] is serratia marcescens ATCC 13 880. The note with it: ATCC13, 18 h, serrat marcesc., 37° C., 18-20 hours. How it is done: as §1, §2, §3, §4, §5, §6
In assay [10] the test system is pseudomonas aeruginosa hamburgensis. The note with it: 18 h, pseud. aerug. hamb., 37° C., 18-20 hours. As to the method:
as §1, §2, §3, §4, §5, §6

In assay [11] the test system is pseudomonas aeruginosa ATCC 10145. The note with it: ATCC10145, 18 h, pseud. aerug. ATCC 10145, 37° C., 18-20 hours. How it is done: as §1, §2, §3, §4, §5, §6
For assay [12], the system named is Staphylococcus aureus SG 511. The conditions noted are these: SG511, 18 h, Staph. Aureus SG 511, 37° C., 18-20 hours. As to the method: as §1, §2, §3, §4, §5, §6

The term MIC denotes the lowest concentration found to suppress growth.

The structures appear in SMILES notation. In brackets after ≈: the same amount, converted by molar mass. A value given as a limit tells only on which side of the number the result lay.

In the case of `CC1(C)S[C@@H]2[C@H](NC(=O)[C@H](NC(=O)Nc3cnc(Nc4ccc(Cl)c(Cl)c4)nc3O)c3ccc(O)cc3)C(=O)N2[C@H]1C(=O)O` [J, D-α-[3-(2-m,p-dichloroanilino-4-hydroxy-5-pyrimidyl)-ureido]-p-hydroxybenzyl-penicillin sodium], the MIC in [1] came out at 0.6 µg/mL; in assay [2] it was 0.6 µg/mL; in assay [3], 1.25 µg/mL; in assay [4] it was 2.5 µg/mL; in assay [5], 0.02 µg/mL; in assay [6], 10 µg/mL. The MIC in assay [7] was determined as 2.5 µg/mL; in assay [8], 2.5 µg/mL; in [9], 0.6 µg/mL; in assay [10], 2.5 µg/mL; in assay [11] it was 2.5 µg/mL.
Regarding `CNc1ncc(NC(=O)N[C@@H](C(=O)N[C@@H]2C(=O)N3[C@@H]2SC(C)(C)[C@@H]3C(=O)O)c2ccc(O)cc2)c(O)n1` [N, D-α-[3-(4-hydroxy-2-methylamino-5-pyrimidyl)-ureido]-p-hydroxybenzyl-penicillin sodium], the MIC in [1] was 2.5 µg/mL; in assay [2], 0.3 µg/mL; in assay [3], 2.5 µg/mL; in [4] it was 80 µg/mL; in assay [5], 0.08 µg/mL; in assay [6], > 80 µg/mL. For the same compound, the MIC in [7] turned out to be 10 µg/mL; in assay [12], 0.3 µg/mL; in assay [8], 40 µg/mL; in assay [9] it was 5 µg/mL; in assay [10] it was 2.5 µg/mL; in assay [11], 2.5 µg/mL.
As to `CN(C)C(=O)Nc1ncc(NC(=O)N[C@@H](C(=O)N[C@@H]2C(=O)N3[C@@H]2SC(C)(C)[C@@H]3C(=O)O)c2ccc(O)cc2)c(O)n1` [M], the MIC in [1] is 2.5 µg/mL (≈ 4.25 µM); in assay [2] it was 2.5 µg/mL (≈ 4.25 µM); in assay [3] it was 10 µg/mL (≈ 17 µM); in [4], > 80 µg/mL; in assay [5] it was 0.3 µg/mL (≈ 0.51 µM); in [6], > 80 µg/mL. Further, the MIC in assay [7] is 80 µg/mL (≈ 136 µM); in assay [12] it was 1.25 µg/mL (≈ 2.12 µM); in assay [8] it was > 80 µg/mL; in assay [9], 10 µg/mL (≈ 17 µM); in assay [10], 5 µg/mL (≈ 8.49 µM); in [11], 5 µg/mL (≈ 8.49 µM).
For the compound `CC1(C)S[C@@H]2[C@H](NC(=O)[C@H](NC(=O)N3CCN(S(C)(=O)=O)C3=O)c3ccccc3)C(=O)N2[C@H]1C(=O)O` [R, reference compound], the MIC in assay [1] was determined as 5 µg/mL (≈ 9.27 µM); in [3], 10 µg/mL (≈ 18.5 µM); in [10], 40 µg/mL (≈ 74.1 µM); in assay [11], 20 µg/mL (≈ 37.1 µM).
In the case of `CCCNc1ncc(NC(=O)N[C@@H](C(=O)N[C@@H]2C(=O)N3[C@@H]2SC(C)(C)[C@@H]3C(=O)O)c2ccc(O)cc2)c(O)n1` [P, D-α-[3-(4-hydroxy-2-propylamino-5-pyrimidyl)-ureido]-p-hydroxybenzyl-penicillin sodium], the MIC is 1.25 µg/mL in assay [1]; 0.08 µg/mL in [2]; 1.25 µg/mL in assay [3]; 10 µg/mL in assay [4]; 0.08 µg/mL in [5]; 80 µg/mL in assay [6]. Further, the MIC in assay [7] was 5 µg/mL; in [12], 0.3 µg/mL; in assay [8] it was 10 µg/mL; in assay [9] it was 1.25 µg/mL; in assay [10], 2.5 µg/mL; in assay [11] it was 1.25 µg/mL.
Take `CC1(C)S[C@@H]2[C@H](NC(=O)[C@H](NC(=O)Nc3cnc(NC4CCCCC4)nc3O)c3ccc(O)cc3)C(=O)N2[C@H]1C(=O)O` [L, D-α-[3-(2-cyclohexylamino-4-hydroxy-5-pyrimidyl)-ureido]-p-hydroxybenzyl-penicillin sodium]: the MIC is 1.25 µg/mL in assay [1]; 0.6 µg/mL in [2]; 0.6 µg/mL in assay [3]; 20 µg/mL in [4]; 0.08 µg/mL in assay [5]; > 80 µg/mL in [6]. Moreover, the MIC came out at 5 µg/mL in [7]; 0.3 µg/mL in assay [12]; 10 µg/mL in [8]; 1.25 µg/mL in assay [9]; 2.5 µg/mL in [10]; 2.5 µg/mL in [11].
Consider `CC1(C)S[C@@H]2[C@H](NC(=O)[C@H](NC(=O)Nc3cnc(NCc4ccc(Cl)cc4)nc3O)c3ccc(O)cc3)C(=O)N2[C@H]1C(=O)O` [O, D-α-[3-(2-p-chlorobenzylamino-4-hydroxy-5-pyrimidyl)-ureido]-p-hydroxybenzyl-penicillin sodium], for which the MIC in [1] worked out at 0.65 µg/mL; in [2], 0.3 µg/mL; in assay [3], 0.3 µg/mL; in assay [4], 20 µg/mL; in assay [5], 0.02 µg/mL; in [6], 80 µg/mL. Further, the MIC was determined as 10 µg/mL in assay [7]; 0.3 µg/mL in assay [12]; 10 µg/mL in [8]; 1.25 µg/mL in [9]; 10 µg/mL in assay [10]; 5 µg/mL in [11].
Consider `CC1(C)S[C@@H]2[C@H](NC(=O)[C@H](NC(=O)Nc3cnc(N4CCOCC4)nc3O)c3ccc(O)cc3)C(=O)N2[C@H]1C(=O)O` [K, D-α-[3-(4-hydroxy-2-morpholiono-5-pyrimidyl)-ureido]-p-hydroxybenzyl-penicillin sodium], for which the minimum inhibitory concentration (MIC) is 2.5 µg/mL in assay [1]; 1.25 µg/mL in assay [2]; 2.5 µg/mL in [3]; > 80 µg/mL in assay [4]; 0.3 µg/mL in [5]; > 80 µg/mL in [6]. The MIC came to 10 µg/mL in assay [7]; 1.25 µg/mL in [12]; 80 µg/mL in [8]; 5 µg/mL in assay [9]; 2.5 µg/mL in [10]; 1.25 µg/mL in assay [11].
Take `CC1(C)S[C@@H]2[C@H](NC(=O)[C@H](NC(=O)Nc3cnccc3O)c3ccccc3)C(=O)N2[C@H]1C(=O)O` [S, D-α-[(4-hydroxy-3-pyridyl)-ureido]benzylpenicillin sodium, reference compound]: the MIC in assay [1] came to 2.5 µg/mL; in [3] it was 10 µg/mL; in assay [10], 20 µg/mL; in assay [11], 20 µg/mL.

(Values after US4241056A, “Penicillins and salts thereof” (Boehringer Ingelheim GmbH, priority 1978, dated 1980).)
